According to PubChem BioAssay AID179 (DTP/NCI, 2004):
pEC50, pIC50: −log10 of the molar value. Several values for one entry are separate records, joined by “and”; a condition that tells them apart may be missing. Identical values can stand only once. Activity calls are given as the source filed them.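 Rule for the calls: active = compounds giving half or more protection of infected cells from virus-caused growth loss, again on retest; inactive = the rest.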 Where a SMILES comes first, the peptide text is derived from it. The star is where a group is joined. Boc = CC(C)(C)OC(=O)*; OSu = O=C1CCC(=O)N1O*

System: CEM cells HIV-1 protection, formazan growth assay
Test: NCI AIDS Antiviral Assay
Conditions: for pIC50: measured here: growth of uninfected CEM cells
Method in brief: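 Five concentrations of each compound were applied to infected and uninfected human CEM cells. Protection from HIV-1 was judged from growth measured with a soluble formazan assay.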

SMILES	pEC50	pIC50	outcome
CCC/C(=N\NC(=O)c1cc2ccccc2cc1O)C(CC)C(=O)CCC(=O)N(Cc1ccccc1)Cc1ccccc1 (stereo not drawn)	< 4.35	< 4.35	
Clc1ccc(-c2cn3c(nc4ccccc43)c(-c3ccccc3)n2)cc1	< 3.70	4.14	
CN(C)/N=C1/CCC(C(F)(F)F)(C(F)(F)F)O1	< 3.70	5.17	
CCCC(C)SP(=S)(SC(C)CCC)SC(C)CCC (stereo not drawn)	< 3.70	< 3.70	
CNC(=O)n1ncc2ccc([N+](=O)[O-])cc21	< 3.70	3.80	
O=C1C=C(C2CCCO2)C(=O)c2c(O)ccc(O)c21 (stereo not drawn)			inactive
O=S(=O)(O)c1ccc2c(c1)NN(c1ccc(/C=C/c3ccc(N=Nc4ccc(/C=C/c5ccc(N6Nc7ccc(S(=O)(=O)O)cc7N6)cc5S(=O)(=O)O)c(S(=O)(=O)O)c4)cc3S(=O)(=O)O)c(S(=O)(=O)O)c1)N2	4.91	3.91	
CC1(C)CC(=O)C(/C(=N/NC(=S)NN)C(=O)Nc2nc3ccc([N+](=O)[O-])cc3s2)C(=O)C1	< 4.27	< 4.27	
[N-]=[N+]=Nc1cc(=O)n(-c2ccccc2)c2ccccc12			inactive
CCCC(=O)c1ccc2c(ccc(=O)n2C)c1	< 3.95	3.99	
CC(=O)Oc1ccc(O)c(O)c1C/C=C(\C)CC/C=C(\C)CC/C=C(\C)CCC=C(C)C			inactive
COC(=O)[C@@H]1CSC(=S)N1C(=O)C[C@H]1CC=CC[C@H]1CC(=O)Sc1ccccc1			inactive
Cc1ccc(CC2(OCCN(C)C)CCC(C(C)(C)C)CC2)cc1 (stereo not drawn)	< 3.70	5.50 and 5.53	
N#CCc1c(F)c(F)c(F)c(F)c1F	< 3.70	< 3.70	
CCCCCCCCCCCCNC(=O)NCC(OCC)OCC	< 3.70	4.50	
Cc1cc(C)c([O-])c(-[n+]2c(-c3ccccc3)cc(-c3ccccc3)cc2-c2ccccc2)c1	< 4.77	5.54	
O=C1C2C3CC(C4C5C=CC(C5)C34)C2C2C3CC(C12)C1C2C=CC(C2)C31 (stereo not drawn)	< 4.54	< 4.54	
CC(C)(C)C1CCC2c3c([nH]c4ccccc34)C3C(=O)N(c4cc(Cl)ccc4Cl)C(=O)C3C2C1 (stereo not drawn)	< 3.70	4.72	
COC(=O)[C@@H]1[C@@H]2NC(=S)N[C@@]1(C)Oc1ccccc12			inactive
CCOC(=O)CP(=S)(S)c1ccccc1 (stereo not drawn)	< 2.26	< 2.26	
Nc1nc(N)c2cc(Sc3ccc4nc(N)nc(N)c4c3)ccc2n1	< 6.70	7.15	
CN(/N=C/C=N/N(C)C1=NCCN1)C1=NCCN1	< 3.70	< 3.70	

SMILES	pEC50	pIC50	outcome
NC(=O)N/N=C(\Cc1cc(=O)oc2cc(O)ccc12)C(=O)Nc1ccccc1C(N)=O	< 4.49	< 4.49	
CCOc1ccc(N=NC2C(=O)N(C(=O)CC(=O)Nc3ccc(Cl)cc3)N=C2C)cc1 (stereo not drawn)	< 3.70	< 3.70	
O=C(CC1C=CCS1(=O)=O)NCc1ccccc1 (stereo not drawn)	< 4.01	< 4.01	
Nc1c(Br)cc2c(c1Br)Cc1cc(N=Nc3ccccc3)ccc1-2	4.29	3.99	
O=c1ccc2c([N+](=O)[O-])cc([N+](=O)[O-])c(O)c2[nH]1			inactive
Oc1ccc(I)c2cccnc12	< 3.74	5.66	
Cc1noc(NS(=O)(=O)c2ccc(N)cc2)c1C	< 3.70	< 3.70	
CC1N(N2C(=O)CS(=O)(=O)C2C)C(=O)CS1(=O)=O (stereo not drawn)	< 3.70	< 3.70	
O=Nc1c(O)c(S(=O)(=O)O)cc2cc(S(=O)(=O)O)ccc12	< 3.70	4.48	
CN1CCCC(=O)C1CC[C@H]1C(=O)CCCN1C (stereo partly drawn)	< 3.57	< 3.57	
CCC(=O)CC(=O)CCC(=O)Nc1cc(C)ccc1C			inactive
CC/C(CC(=O)CCC(=O)Nc1ccc(C)c(C)c1)=N\NC(=O)C(N)=O			inactive
Cc1ccc(C(=O)/C=C/c2ccco2)cc1	< 3.77	4.27	
C=C1C(=O)O[C@@H]2C=C(C)C3=CC(=O)[C@](C)(C[C@H](OC(=O)/C(C)=C\C)[C@@H]12)O3	< 5.27	6.65	
Cc1ccc2c(c1)CC1(C2)Cc2ccc(C)cc2C1=O (stereo not drawn)	< 3.70	4.63	
O=C1NC(=O)C(C(=O)Nc2ccc(Cl)cc2)c2ccccc21 (stereo not drawn)	< 3.70	3.89	
COc1cc2oc(-c3ccc(O)cc3)cc(=O)c2c(OC)c1O	< 3.70	< 3.70	
COC1N(C2C=CC(CO)O2)C(=O)NC(=O)C1(C)Br (stereo not drawn)	4.00	3.89	
Cc1nc2c(=O)[nH]c(=O)n(C)c2[nH]c1=O	< 4.46	< 4.46	
CC(C)(C)OC(=O)NC(Cc1ccc(O)cc1)C(=O)NC(CCCCN)C(=O)NC(Cc1ccc(O)cc1)C(=O)NC(CCCCN)C(=O)ON1C(=O)CCC1=O (stereo not drawn) (Boc-YKYK-OSu; configuration not given here)	< 4.00	< 4.00	
O=C(CP(=O)(O)O)c1cccs1	< 2.92	< 2.92	
CC(=O)N(C(C)=O)c1ncc(-n2nc(-c3ccccc3)cc2-c2ccccc2)c(-c2ccccc2)n1	< 3.70	3.94	

SMILES	pEC50	pIC50	outcome
CC1CC(=O)c2c(ccc3c2C(=O)c2cccc(O)c2C3=O)C1 (stereo not drawn)			inactive
COc1cc(C(O)C2C(=O)OCC2C2(c3ccc4c(c3)OCO4)SCCCS2)cc(OC)c1OC (stereo not drawn)	< 4.44	< 4.44	
CC1=Nc2ccccc2C12C(c1ccccc1)C(c1ccccc1)C(=O)N1c3ccccc3CC12 (stereo not drawn)	< 4.10	< 4.10	
CC1(c2ccccc2)Oc2ccccc2-n2cccc2C1=O (stereo not drawn)	5.62	4.89	
Cc1cc(NC(=O)C(=O)Cc2cnc3ccccc3n2)c(S(=O)(=O)O)cc1Cl	< 3.23	< 3.23	
C=CCC(CCC(C)=O)(C(=O)OCC)C(=O)OCC	< 3.70	< 3.70	
CC1(C)CNC[C@@]2(C)OCCN(C(=O)OC(C)(C)C)CCO[C@]3(C)CNCC(C)(C)NC(=O)[C@@](C)(CNCC(C)(C)NC3=O)OCCN(C(=O)OC(C)(C)C)CCO[C@](C)(CNCC(C)(C)NC2=O)C(=O)N1			inactive
COc1ccc2[nH]c3c(c2c1)CCc1ccccc1-3			inactive
CC(C)c1oc2ccccc2c1C(=O)c1ccc(O)cc1	< 3.83	4.88	
CN(C)c1ccc2c(c1)-c1cc(N(C)C)ccc1C2=CC=C1C(=O)NC(=S)NC1=O	< 4.91	< 4.91	
Cn1cc(C(=O)NCCC(=N)N)cc1NC(=O)C1=[N+](C)C=C(NC(=O)c2cccc(C(=O)NC3=CC(C(=O)Nc4cc(C(=O)NCCC(=N)N)cn4C)=[N+](C)C3)c2)C1	5.46	4.13	
COc1cc2c(cc1OC)C1=Cc3cc(OC)c(OC)cc3C(C)N1C=C2 (stereo not drawn)	< 3.45	4.53	
C(/C=C/N1CCCC1)=C\c1nc(N2CCCC2)c2ccccc2n1	< 4.37	4.94	
CCCCCCCCCC(=O)CC(=O)c1ccc(O)cc1O	< 3.93	4.16	
CC(C)OC(=S)Nc1ccc(Cl)c(COC(C)(C)C)c1	5.27	4.50	
Oc1ccc2ccc3c(c2c1)CN(Cc1ccccc1)CO3	< 4.61	< 4.61	
COc1ccc(/C=N/Nc2nnc3c4ccccc4c4ncccc4c3n2)cc1	< 3.30	< 3.30	
O=C(O)/C(=C\c1ccc(F)cc1)c1ccccc1	< 3.27	3.51	
O=C(O)c1cc(NCc2cc(O)ccc2O)ccc1O	< 4.60	5.29	
C=CCN1CCC(OC(=O)C(O)(/C=C\CC)C2CCCC2)CC1 (stereo not drawn)	< 3.70	< 3.70	
Cc1cccc2c1Oc1ccccc1C2NC(=O)CCN(C)C (stereo not drawn)	< 3.70	4.42	
CN(C)c1ccc(/C=C(\C#N)C(=O)O)cc1	< 3.36	3.66	

SMILES	pEC50	pIC50	outcome
Cc1nc(NS(=O)(=O)c2ccc(NC(=O)c3ccccc3SC(=O)CCCC[n+]3ccccc3)cc2)oc1C	4.78	4.28	
COc1cccc(C2Nc3ccccc3C(=O)N2N2CCOCC2)c1 (stereo not drawn)	< 3.70	< 3.70	
CS(=O)(=O)OCC1CCCCCCCCCCC12SCCCS2 (stereo not drawn)	< 3.70	< 3.70	
Nc1ccccc1SSc1ccccc1N	< 3.70	4.60 and 5.27	inactive
O=C1NC(=O)C(c2ccccc2)(c2ccccc2)N1	< 3.43	< 3.43	
COC(=O)c1c(-c2ccccc2)c(-c2ccccc2)[nH]c(=O)c1C#N	< 3.70	< 3.70	
O=c1c2[nH]cnc2n(-c2ccccc2)c(=S)n1-c1ccccc1	< 3.70	< 3.70	
O=C(C=P(c1ccccc1)(c1ccccc1)c1ccccc1)CC(=S)CC(=O)C=P(c1ccccc1)(c1ccccc1)c1ccccc1			inactive
Cc1c(CCO)c(=O)n2n1CCCC2	< 3.70	< 3.70	
NC(CS/C=C\C(=O)O)C(=O)O (stereo not drawn)	< 4.56	< 4.56	
Nc1ccc2c(=S)c3ccccc3[nH]c2c1			inactive
CCOC(=O)/C(=C\n1c(=S)[nH]c2ccccc21)C(=O)c1ccccc1	< 3.70	< 3.70	
COc1cc2cc(C(=O)N3CC(CCl)c4c3cc([N+](=O)[O-])c3ccccc43)[nH]c2c(OC)c1OC (stereo not drawn)	< 5.00	5.62	
CCC[CH2][Sn]([CH2]CCC)([O]C(=O)c1ccc(OC)c(OC)c1OC)[O][Sn]([CH2]CCC)([CH2]CCC)[O]C(=O)c1ccc(OC)c(OC)c1OC	< 5.24	6.06	
CCNC(=S)N/N=C(/c1ccc(OC)cc1)P(=O)(OCC)OCC	< 4.30	< 4.30	
COc1ccc(-n2nc(C)cc(N)c2=O)cc1	< 2.97	< 2.97	
O=C(Nc1ccccc1)Oc1ccccc1C1CCCCC1			inactive
CSc1cnc2ccccc2c1Sc1cn(C)c2ccccc2c1=O	< 4.43	4.50	
Cc1ccc2c(c1)CC1(C2=O)[C@H](c2ccccc2)C2C(=O)c3ccc(C)cc3C2[C@H]1c1ccccc1 (stereo partly drawn)	< 3.70		
Cc1ccc2c(c1)-c1c(C#N)c(N)nc(-c3ccccc3)c1CCS2(=O)=O	< 3.70	5.68	
